Data taken from US4697012A, “Morpholino pyridyl thiazole compound” (Merck & Co., Inc., priority 1984, dated 1987).
Counter-ions that a name gives are not always drawn.

Test system: footpad swelling (SRBC challenge)
Test: Delayed Hypersensitivity Assay (SRBC-sensitized mice, footpad swelling)
Format: in vivo, female BALB/C mice
Details: Mus musculus, one hour prior to challenge, 24 hrs post challenge, read-out: Inhibition % (percent inhibition of footpad swelling); for inhibition in vivo at 0.01 mg/kg: dosage 0.01 mg/kg p.o.; for inhibition in vivo at 0.1 mg/kg: dosage 0.1 mg/kg p.o.; for inhibition in vivo at 10 mg/kg: dosage 10.0 mg/kg p.o.; for inhibition in vivo at 100 mg/kg: dosage 100.0 mg/kg p.o.; for inhibition in vivo at 1 mg/kg: dosage 1.0 mg/kg p.o.; for inhibition in vivo at 10 µg/mL / inhibition in vivo at 100 µg/mL / inhibition in vivo at 10000 µg/mL / inhibition in vivo at 100000 µg/mL: Table II; for inhibition in vivo at 10 µg/mL: dosage 0.01 (mg/ml as printed) p.o.; for inhibition in vivo at 100 µg/mL: dosage 0.1 (mg/ml as printed) p.o.; for inhibition in vivo at 10000 µg/mL: dosage 10.0 (mg/ml as printed) p.o.; for inhibition in vivo at 100000 µg/mL: dosage 100.0 (mg/ml as printed) p.o.
Procedure: Animals (female BALB/C mice) are sensitized with 5×10^5 SRBC(sheep red blood cells)/0.5 ml by intravenous (tail vein) injection. One hour prior to challenge, animals are dosed with the drugs in question, p.o. On day four the animals are challenged with 5×10^8 SRBC/0.05 ml in the hind foot pad. Footpad volume is measured by a mercury displacement apparatus before challenge and 24 hrs post challenge. Percent inhibition of footpad swelling is calculated by comparing the increase in footpad volume of test group to the control group.

## Nc1ccccc1Cc1nc(-c2ccncc2)cs1 [o-NH2, 2-(o-Aminobenzyl)-4-(4-pyridyl)thiazole]
po, Table I
  inhibition in vivo at 0.01 mg/kg: 82.2%
  inhibition in vivo at 0.1 mg/kg: 93.6%
  inhibition in vivo at 10 mg/kg: 52.8%

## Cc1cccc(Cc2nc(-c3ccncc3)cs2)c1 [m-CH3, 2-(m-methyl-benzyl)-4-(4-pyridyl)thiazole dihydrochloride]
po, Table I
  inhibition in vivo at 0.1 mg/kg: 49.1%
  inhibition in vivo at 10 mg/kg: 64.8%
  inhibition in vivo at 100 mg/kg: 71.2%

## OC(c1ccccc1)c1nc(-c2ccncc2)cs1 (stereo not drawn) [OH, 1-Phenyl-1-[4-(4-pyridyl)-2-thiazolyl]methanol]
po, Table I
  inhibition in vivo at 0.1 mg/kg: 32%
  inhibition in vivo at 1 mg/kg: 31%
  inhibition in vivo at 10 mg/kg: 55%

## OCC(c1ccccc1)c1nc(-c2ccncc2)cs1 (stereo not drawn) [CH2 OH, 2-Phenyl-2-[4-(4-pyridyl)-2-thiazolyl] ethanol]
po, Table I
  inhibition in vivo at 0.1 mg/kg: 51%
  inhibition in vivo at 1 mg/kg: 65%
  inhibition in vivo at 10 mg/kg: 27%

## [O-][n+]1ccc(-c2csc(Cc3ccccc3)n2)cc1 [Noxide, 4-[2-(Phenylmethyl)-4-thiazolyl]pyridine-1-oxide]
  inhibition in vivo at 10 µg/mL: 46%
  inhibition in vivo at 100 µg/mL: 55.6%
  inhibition in vivo at 10000 µg/mL: 71.8%
  inhibition in vivo at 100000 µg/mL: 93.4%

## c1ccc(-c2ccc(Cc3nc(-c4ccncc4)cs3)cc2)cc1 [p-C6 H5]
po, Table I
  inhibition in vivo at 10 mg/kg: 36.4%

## O=[N+]([O-])c1ccc(Cc2nc(-c3ccncc3)cs2)cc1 [p-NO2, 2-(p-Nitrobenzyl)-4-(4-pyridyl)thiazole]
po, Table I
  inhibition in vivo at 0.01 mg/kg: 32.4%
  inhibition in vivo at 0.1 mg/kg: 40.6%
  inhibition in vivo at 10 mg/kg: 65.2%
  inhibition in vivo at 100 mg/kg: 82.2%

## CC(=O)Nc1ccccc1Cc1nc(-c2ccncc2)cs1 [o-NHCOCH3, 2-(o-acetamidobenzyl)-4-(4-pyridyl)thiazole]
po, Table I
  inhibition in vivo at 0.1 mg/kg: 32.6%
  inhibition in vivo at 10 mg/kg: 52.8%
  inhibition in vivo at 100 mg/kg: 75.5%

## NC(=O)Nc1ccccc1Cc1nc(-c2ccncc2)cs1 [o-NHCONH2]
po, Table I
  inhibition in vivo at 0.01 mg/kg: 40.4%
  inhibition in vivo at 10 mg/kg: 31.4%

## N#CC(c1ccccc1)c1nc(-c2ccncc2)cs1 (stereo not drawn) [CN, 2-Phenyl-2-[4-(4-pyridyl)-2-thiazolyl]acetonitrile]
po, Table I
  inhibition in vivo at 0.1 mg/kg: 58%
  inhibition in vivo at 1 mg/kg: 46%

## FC(F)(c1ccccc1)c1nc(-c2ccncc2)cs1 [F,F, 1,1-Difluoro-1-phenyl-1-[4-(4-pyridyl)-2-thiazolyl]-methane]
po, Table I
  inhibition in vivo at 1 mg/kg: 49%
  inhibition in vivo at 10 mg/kg: 63%

## N#Cc1cc(-c2csc(Cc3ccccc3)n2)ccn1 [Example 2-CN]
  inhibition in vivo at 10000 µg/mL: 36.6%

## Fc1ccc(Cc2nc(-c3ccncc3)cs2)cc1 [PF, 2-(p-fluoro-benzyl)-4-(4-pyridyl)thiazole]
po, Table I
  inhibition in vivo at 0.1 mg/kg: 11.7%
  inhibition in vivo at 1 mg/kg: 60.8%
  inhibition in vivo at 10 mg/kg: 40.9%

## Clc1cc(-c2csc(Cc3ccccc3)n2)ccn1 [Example 2-Cl, 2-Benzyl-4-(2-chloro-4-pyridyl)thiazole]
  inhibition in vivo at 10 µg/mL: 52.6%
  inhibition in vivo at 100 µg/mL: 64.7%
  inhibition in vivo at 10000 µg/mL: 77.6%
  inhibition in vivo at 100000 µg/mL: 80.1%

## c1ccc(Cc2nc(-c3ccncc3)cs2)cc1 [H, 2-Benzyl-4-(4-pyridyl)thiazole]
po, Table I
  inhibition in vivo at 0.01 mg/kg: 21.8%
  inhibition in vivo at 0.1 mg/kg: 70.2%
po, Table I, dosage 30 mg/kg p.o.
  inhibition in vivo at 30 mg/kg: 75.2%

## Oc1ccccc1Cc1nc(-c2ccncc2)cs1 [o-OH]
po, Table I
  inhibition in vivo at 0.01 mg/kg: 15.1%
  inhibition in vivo at 0.1 mg/kg: 16.4%

## O=CC(c1ccccc1)c1nc(-c2ccncc2)cs1 (stereo not drawn) [CHO]
po, Table I
  inhibition in vivo at 10 mg/kg: 63%

## c1ccc(Cc2nc(-c3ccnc(N4CCOCC4)c3)cs2)cc1 [Example 2-morpholino]
  inhibition in vivo at 10 µg/mL: 26.1%
  inhibition in vivo at 100 µg/mL: 33.8%
  inhibition in vivo at 10000 µg/mL: 44.3%
  inhibition in vivo at 100000 µg/mL: 45.1%
